pKi: −log10 of the molar value.

The term pKi denotes −log10 of the Ki, conventionally taken in molar units. High values mean a small Ki, low ones a large Ki.

One assay deals with T1, CCR2 (Homo sapiens, UniProt P41597).
T1 construct: Membranes were prepared from THP-1 cells; endogenous in cells; host or cells: THP-1 cells (membrane preparation)
T1 sequence (P41597 1-360 isoform P41597-2): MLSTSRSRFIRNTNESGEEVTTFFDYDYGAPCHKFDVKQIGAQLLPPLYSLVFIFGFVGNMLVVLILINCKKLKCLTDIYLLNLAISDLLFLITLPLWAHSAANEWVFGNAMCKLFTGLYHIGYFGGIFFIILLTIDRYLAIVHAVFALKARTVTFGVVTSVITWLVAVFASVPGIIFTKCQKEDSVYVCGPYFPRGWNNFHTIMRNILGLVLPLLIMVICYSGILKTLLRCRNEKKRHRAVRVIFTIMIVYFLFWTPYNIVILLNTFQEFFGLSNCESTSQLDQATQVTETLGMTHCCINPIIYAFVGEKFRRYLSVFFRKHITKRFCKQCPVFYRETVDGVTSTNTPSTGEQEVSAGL
As to the kind of experiment: CCR2 receptor membrane binding assay ([125I]MCP-1, THP-1 cell membranes, SPA beads). The following applies: @ 10 μM test compound; THP-1 membranes; read-out: CCR2 % ctrl @ 10 μM. In short, it runs like this: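 hKi was derived by iterative law-of-mass-action fitting of scintillation counts read at 8 h. Compound (1% DMSO final) competed with ca. 25000 cpm [125I]MCP-1 for THP-1 membranes bound to WGA-PVT beads. Buffer: 25 mM HEPES pH 7.2, 5 mM MgCl2, 0.5 mM CaCl2, 0.2% BSA.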
For the compound `Cc1c(NCCc2ccc(Cl)c(Cl)c2)ncnc1C(=O)N1CCC(N2CCCC2)CC1` [Example 253], the remaining activity at 10 µM was 17%.
In the case of `CNS(=O)(=O)C1CCN(C2CCN(C(=O)c3ncnc(NCc4ccc(Cl)c(Cl)c4)c3C)CC2)CC1` [Example 254], the remaining activity at 10 µM came to 11%.
On the same count and under the same terms, the figure for `Cc1c(NCc2ccc(Cl)c(Cl)c2)ncnc1C(=O)N1CCC(N2CCC(N(C)S(C)(=O)=O)CC2)CC1` [Example 255] is 5%; for `Cc1c(NCc2ccc(Cl)c(Cl)c2)ncnc1C(=O)N1CCC(N2CC[C@H](C(N)=O)C2)CC1` [Example 256] it is 25%.
The same measure, in the same setting: the figure for `CNC(=O)[C@H]1CCN(C2CCN(C(=O)c3ncnc(NCc4ccc(Cl)c(Cl)c4)c3C)CC2)C1` [Example 257] is 14%; for `Cc1c(NCc2ccc(Cl)c(Cl)c2)ncnc1C(=O)N1CCC(N2CC[C@H](NS(C)(=O)=O)C2)CC1` [Example 258] it is 4%; for `Cc1c(NCc2ccc(Cl)c(Cl)c2)ncnc1C(=O)N1CCC(N2CC[C@@H](NS(C)(=O)=O)C2)CC1` [Example 259] it is 16%.
With `CNC(=O)[C@@H]1CCN(C2CCN(C(=O)c3ncnc(NCc4ccc(Cl)c(Cl)c4)c3C)CC2)C1` [Example 260], the remaining activity at 10 µM came out at 20%.
On the same count and under the same terms, the figure for `CNC(=O)C1CCN(C2CCN(C(=O)c3ncnc(NCc4ccc(C(C)(C)C)cc4)c3C)CC2)CC1` [Example 261] is 8%; for `CNS(=O)(=O)C1CCN(C2CCN(C(=O)c3nc(C)nc(NCc4ccc(C(C)(C)C)cc4)c3C)CC2)CC1` [Example 262] it is 13%.
Regarding `COC1CN(C(=O)c2ncnc(NCc3ccc(C(C)(C)C)cc3)c2C)CCC1N1CCC(N(C)S(C)(=O)=O)CC1` (stereo not drawn) [Example 263], the remaining activity at 10 µM is 27%.
Turning to `CCS(=O)(=O)NC1CCN(C2CCN(C(=O)c3ncnc(NCc4ccc(C(C)(C)C)cc4)c3C)CC2)CC1` [Example 264], the remaining activity at 10 µM turned out to be 3%.
Same read-out and setting: next, `Cc1c(NCc2ccc(C(C)(C)C)cc2)ncnc1C(=O)N1CCC(N2CC[C@@H](C(N)=O)C2)CC1` [Example 265]: 23%; `Cc1nc(NCc2ccc(C(C)(C)C)cc2)c(C)c(C(=O)N2CCC(N3CC[C@@H](C(N)=O)C3)CC2)n1` [Example 267]: 20%; `Cc1c(Cc2ccc(C(C)(C)C)cc2)ncnc1C(=O)N1CCC(N2CCC(N(C)S(C)(=O)=O)CC2)CC1` [Example 268]: 5%.
As for `Cc1c(/C=C/c2ccc(C(C)(C)C)cc2)ncnc1C(=O)N1CCC(N2CCOCC2)CC1` [Example 271], the remaining activity at 10 µM is 15%.
Regarding `Cc1c(CCc2ccc(C(C)(C)C)cc2)ncnc1C(=O)N1CCC(N2CCC(N(C)S(C)(=O)=O)CC2)CC1` [Example 272], the remaining activity at 10 µM turned out to be 8%.
In the case of `Cc1c(C(=O)N2CCC(N3CCC(NS(C)(=O)=O)CC3)CC2)ccnc1NCc1ccc(Cl)c(Cl)c1` [Example 274], the remaining activity at 10 µM was 48%.
Still for that read-out and setting: the figure for `Cc1c(C(=O)N2CCC(N3CCC(O)CC3)CC2)ccnc1NCc1ccc(Cl)c(Cl)c1` [Example 275] is 19%.
As for `Cc1c(NCc2ccc(C(C)(C)C)cc2)ncnc1C(=O)N1CCC(N(C)C2CCOCC2)CC1` [Example 275a], the remaining activity at 10 µM worked out at 0%.
Still for that read-out and setting: the figure for `COC1COCCC1N(C)C1CCN(C(=O)c2ncnc(NCc3ccc(C(C)(C)C)cc3)c2C)CC1` (stereo not drawn) [Example 275b] is 3%.
On the same count and under the same terms, next, `Cc1c(NCc2ccc(C(C)(C)C)cc2)ncnc1C(=O)N1CCC(N(C)C2CC(C)OC(C)C2)CC1` (stereo not drawn) [Example 275c]: 38%; `Cc1c(NCc2ccc(C(C)(C)C)cc2)ncnc1C(=O)N1CCC(N(C)C2CCC(F)(F)CC2)CC1` [Example 275d]: 10%; `CCc1c(NCc2cccc(-c3ccccc3)c2)ncnc1C(=O)N1CCC(N2CCOCC2)CC1` [Example 276]: 23%.

Still in this assay, the particulars now being: dissociation constant hKi; [125I]MCP-1 binding to THP-1 membranes.
The compound `Cc1c(NCCc2ccc(Cl)c(Cl)c2)ncnc1C(=O)N1CCC(N2CCCC2)CC1` [Example 253] showed a pKi of 6.46.
In turn, `CNS(=O)(=O)C1CCN(C2CCN(C(=O)c3ncnc(NCc4ccc(Cl)c(Cl)c4)c3C)CC2)CC1` [Example 254] showed a pKi of 7.00.
Still for that read-out and setting: the figure for `Cc1c(NCc2ccc(Cl)c(Cl)c2)ncnc1C(=O)N1CCC(N2CCC(N(C)S(C)(=O)=O)CC2)CC1` [Example 255] is 7.48.
Same read-out and setting: the figure for `Cc1c(NCc2ccc(Cl)c(Cl)c2)ncnc1C(=O)N1CCC(N2CC[C@H](C(N)=O)C2)CC1` [Example 256] is 6.36.
The same measure, in the same setting: next, `CNC(=O)[C@H]1CCN(C2CCN(C(=O)c3ncnc(NCc4ccc(Cl)c(Cl)c4)c3C)CC2)C1` [Example 257]: 6.73; `Cc1c(NCc2ccc(Cl)c(Cl)c2)ncnc1C(=O)N1CCC(N2CC[C@H](NS(C)(=O)=O)C2)CC1` [Example 258]: 7.19.
`Cc1c(NCc2ccc(Cl)c(Cl)c2)ncnc1C(=O)N1CCC(N2CC[C@@H](NS(C)(=O)=O)C2)CC1` [Example 259] gave a pKi of 6.56.
On the same count and under the same terms, the figure for `CNC(=O)[C@@H]1CCN(C2CCN(C(=O)c3ncnc(NCc4ccc(Cl)c(Cl)c4)c3C)CC2)C1` [Example 260] is 6.31; for `CNC(=O)C1CCN(C2CCN(C(=O)c3ncnc(NCc4ccc(C(C)(C)C)cc4)c3C)CC2)CC1` [Example 261] it is 6.92.
Same read-out and setting: the figure for `CNS(=O)(=O)C1CCN(C2CCN(C(=O)c3nc(C)nc(NCc4ccc(C(C)(C)C)cc4)c3C)CC2)CC1` [Example 262] is 6.65.
`COC1CN(C(=O)c2ncnc(NCc3ccc(C(C)(C)C)cc3)c2C)CCC1N1CCC(N(C)S(C)(=O)=O)CC1` (stereo not drawn) [Example 263] gave a pKi of 5.71.
Same read-out and setting: the figure for `CCS(=O)(=O)NC1CCN(C2CCN(C(=O)c3ncnc(NCc4ccc(C(C)(C)C)cc4)c3C)CC2)CC1` [Example 264] is 7.39; for `Cc1c(NCc2ccc(C(C)(C)C)cc2)ncnc1C(=O)N1CCC(N2CC[C@@H](C(N)=O)C2)CC1` [Example 265] it is 6.34.
Consider `Cc1nc(NCc2ccc(C(C)(C)C)cc2)c(C)c(C(=O)N2CCC(N3CC[C@@H](C(N)=O)C3)CC2)n1` [Example 267], for which the pKi was 6.31.
In turn, `Cc1c(Cc2ccc(C(C)(C)C)cc2)ncnc1C(=O)N1CCC(N2CCC(N(C)S(C)(=O)=O)CC2)CC1` [Example 268] showed a pKi of 6.92.
Same read-out and setting: the figure for `Cc1c(/C=C/c2ccc(C(C)(C)C)cc2)ncnc1C(=O)N1CCC(N2CCOCC2)CC1` [Example 271] is 5.79.
Still for that read-out and setting: next, `Cc1c(CCc2ccc(C(C)(C)C)cc2)ncnc1C(=O)N1CCC(N2CCC(N(C)S(C)(=O)=O)CC2)CC1` [Example 272]: 6.81.
Still for that read-out and setting: the figure for `Cc1c(C(=O)N2CCC(N3CCC(NS(C)(=O)=O)CC3)CC2)ccnc1NCc1ccc(Cl)c(Cl)c1` [Example 274] is 5.35; for `Cc1c(C(=O)N2CCC(N3CCC(O)CC3)CC2)ccnc1NCc1ccc(Cl)c(Cl)c1` [Example 275] it is 6.23; for `Cc1c(NCc2ccc(C(C)(C)C)cc2)ncnc1C(=O)N1CCC(N(C)C2CCOCC2)CC1` [Example 275a] it is 7.54.
Regarding `COC1COCCC1N(C)C1CCN(C(=O)c2ncnc(NCc3ccc(C(C)(C)C)cc3)c2C)CC1` (stereo not drawn) [Example 275b], the pKi is 7.59.
The same measure, in the same setting: next, `Cc1c(NCc2ccc(C(C)(C)C)cc2)ncnc1C(=O)N1CCC(N(C)C2CC(C)OC(C)C2)CC1` (stereo not drawn) [Example 275c]: 5.53.
Still for that read-out and setting: next, `Cc1c(NCc2ccc(C(C)(C)C)cc2)ncnc1C(=O)N1CCC(N(C)C2CCC(F)(F)CC2)CC1` [Example 275d]: 6.50; `CCc1c(NCc2cccc(-c3ccccc3)c2)ncnc1C(=O)N1CCC(N2CCOCC2)CC1` [Example 276]: 5.73.

The values above are taken from patent US8835440B2, “Cyclic pyrimidin-4-carboxamides as CCR2 receptor antagonists for treatment of inflammation, asthma and COPD” (Boehringer Ingelheim International GmbH, priority 2008, dated 2014).
